Data reported in patent US12649727B2, “EFGR inhibitor, preparation method therefor and application thereof” (Abbisko Therapeutics Co., Ltd, priority 2020, dated 2026).

Key:
Assay type in all cases: cell-based
A431 (EGFR-WT) = test: Proliferation experiment, A431 cell line (CellTiter-Glo); details: Homo sapiens, A-431; A431 cells, cultured for 72 hrs with compound, CTG analysis
Procedure: [The procedure below names another cell line; the source lists this cell line under the same test.] (§1) Proliferation Experiment of Ba/F3 Cell Line
(§2) (I) Reagents and Materials
(§3) • Fetal bovine serum FBS (GBICO, Cat #10099-141); • CellTiter-Glo® luminescent cell viability assay kit (Promega, Cat #G7572); • Black transparent flat-bottom 96 well plate (Corning®, Cat #3603). (II) Instruments • SpectraMax multi-label microplate reader MD, 2104-0010A; • Carbon dioxide incubator, Thermo Scientific 3100 series; • Biological safety cabinet, Thermo Scientific, 1300 series model A2; • Inverted microscope, Olympus, CKX41SF; • Siemens refrigerator KK25E76TI. (III) Cell Lines and Culture Conditions
(§4) (IV) Experimental Procedures 1. Cell Culture and Inoculation: • (1) Cells in the logarithmic growth phase were harvested and counted using a […]. Cell viability was detected by Trypan Blue Dye Exclusion Method to ensure cell viability above 90%. • (2) The cell concentration was adjusted to reach a desired final density; 90 μL of cell suspension was added to the 96-well plate. • (3) The cells were incubated overnight in the 96-well plate at 37° C., 5% CO2 and at 95% humidity.
(§5) 2. T0 Reference Data: • (1) 10 μL PBS was added to each well of the TO plate containing the cells. • (2) The CTG reagent was thawed and the cell plate was equilibrated to room temperature for 30 min. • (3) An equal volume of CTG solution was added to each well. • (4) The cells were lysed by shaking on an orbital shaker for 5 min. • (5) The cell plate was left at room temperature for 20 min to stabilize the luminescence signal. • (6) The fluorescence signal values of TO were read. 3. Dilution and Addition of Compounds • (1) According to the compound information table, a corresponding volume of DMSO was added to the corresponding compound powder to prepare a 10 mM stock solution. • (2) A 1000-fold, 3.16-fold-diluted compound solution was prepared. • (3) The 1000× diluted compound solution was diluted 100-fold with PBS to prepare a 10-fold compound solution with a maximum concentration of […], including 9 concentrations, with 3.16-fold dilution, and 10 μL of the medicament solution was added to each well of the 96-well plate to seed the cells. Triplicate wells were set for each compound concentration, with a final concentration of DMSO being 0.1%. • (4) The cells were placed in the 96-well plate filled with the medicament at 37° C., 5% CO2 and at 95% humidity, and cultured for 72 hrs before CTG analysis. 4. Fluorescence Signal Reading • (1) The CTG reagent was thawed and the cell plate was equilibrated to room temperature for 30 min. • (2) An equal volume of CTG solution was added to each well. • (3) The cells were lysed by shaking on an orbital shaker for 5 min. • (4) The cell plate was left at room temperature for 20 min to stabilize the fluorescence signal. • (5) The fluorescence values were read. 5. Data Processing
(§6) Data were analyzed using GraphPad Prism 7.0 software and fitted data were regressed using non-linear S-curves to obtain dose-response curves from which IC50 values (in nM) were calculated.

[1] = target: Ba/F3 EGFR-D770-N771ins_SVD (Homo sapiens, UniProt P00533, DUP768-770, cells depend on it); test: Proliferation experiment of Ba/F3 cell line, EGFR-D770-N771ins_SVD (CellTiter-Glo); details: cultured for 72 hrs with compound, CTG analysis, read-out: Ba/F3 EGFR-D770-N771ins_SVD IC50
Chain of Ba/F3 EGFR-D770-N771ins_SVD (P00533 with tags, fused parts or gaps DUP768-770): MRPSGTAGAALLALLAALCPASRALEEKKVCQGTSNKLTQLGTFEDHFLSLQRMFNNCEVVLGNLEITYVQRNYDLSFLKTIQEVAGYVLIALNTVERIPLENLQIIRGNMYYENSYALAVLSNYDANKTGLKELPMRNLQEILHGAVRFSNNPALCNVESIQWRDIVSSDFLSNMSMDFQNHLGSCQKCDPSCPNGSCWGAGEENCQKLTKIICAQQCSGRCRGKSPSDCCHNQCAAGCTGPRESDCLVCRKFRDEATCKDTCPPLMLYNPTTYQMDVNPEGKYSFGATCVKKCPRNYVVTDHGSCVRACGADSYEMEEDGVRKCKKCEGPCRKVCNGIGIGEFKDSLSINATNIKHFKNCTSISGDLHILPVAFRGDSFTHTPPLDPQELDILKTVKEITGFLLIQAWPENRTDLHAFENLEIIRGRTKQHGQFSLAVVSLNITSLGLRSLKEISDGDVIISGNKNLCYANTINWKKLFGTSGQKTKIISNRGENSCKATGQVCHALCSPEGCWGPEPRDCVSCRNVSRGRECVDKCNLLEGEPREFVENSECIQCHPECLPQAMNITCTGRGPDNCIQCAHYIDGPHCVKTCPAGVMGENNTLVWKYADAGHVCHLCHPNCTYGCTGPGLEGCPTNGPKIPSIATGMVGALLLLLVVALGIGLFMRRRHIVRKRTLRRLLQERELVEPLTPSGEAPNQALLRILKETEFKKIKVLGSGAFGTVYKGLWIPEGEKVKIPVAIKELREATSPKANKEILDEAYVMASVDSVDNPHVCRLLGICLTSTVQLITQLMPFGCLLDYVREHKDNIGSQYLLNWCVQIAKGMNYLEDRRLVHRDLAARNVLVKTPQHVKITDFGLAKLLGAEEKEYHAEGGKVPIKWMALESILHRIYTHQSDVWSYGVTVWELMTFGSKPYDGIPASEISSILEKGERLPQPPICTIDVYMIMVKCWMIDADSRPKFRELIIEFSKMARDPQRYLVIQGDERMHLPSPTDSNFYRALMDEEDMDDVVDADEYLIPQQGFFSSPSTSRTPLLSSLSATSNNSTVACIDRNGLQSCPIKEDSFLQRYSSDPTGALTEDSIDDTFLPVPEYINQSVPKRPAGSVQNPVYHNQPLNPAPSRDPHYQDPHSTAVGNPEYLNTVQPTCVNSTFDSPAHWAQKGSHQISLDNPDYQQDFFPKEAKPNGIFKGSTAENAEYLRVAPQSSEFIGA
Procedure: as §1, §2, §3, §4, §5, §6

[2] = target: Ba/F3 EGFR-V769_D770insASV (Homo sapiens, UniProt P00533, DUP767-769, cells depend on it); test: Proliferation experiment of Ba/F3 cell line, EGFR-V769_D770insASV (CellTiter-Glo); details: cultured for 72 hrs with compound, CTG analysis, read-out: Ba/F3 EGFR-V769_D770insASV IC50
Chain of Ba/F3 EGFR-V769_D770insASV (P00533 with tags, fused parts or gaps DUP767-769): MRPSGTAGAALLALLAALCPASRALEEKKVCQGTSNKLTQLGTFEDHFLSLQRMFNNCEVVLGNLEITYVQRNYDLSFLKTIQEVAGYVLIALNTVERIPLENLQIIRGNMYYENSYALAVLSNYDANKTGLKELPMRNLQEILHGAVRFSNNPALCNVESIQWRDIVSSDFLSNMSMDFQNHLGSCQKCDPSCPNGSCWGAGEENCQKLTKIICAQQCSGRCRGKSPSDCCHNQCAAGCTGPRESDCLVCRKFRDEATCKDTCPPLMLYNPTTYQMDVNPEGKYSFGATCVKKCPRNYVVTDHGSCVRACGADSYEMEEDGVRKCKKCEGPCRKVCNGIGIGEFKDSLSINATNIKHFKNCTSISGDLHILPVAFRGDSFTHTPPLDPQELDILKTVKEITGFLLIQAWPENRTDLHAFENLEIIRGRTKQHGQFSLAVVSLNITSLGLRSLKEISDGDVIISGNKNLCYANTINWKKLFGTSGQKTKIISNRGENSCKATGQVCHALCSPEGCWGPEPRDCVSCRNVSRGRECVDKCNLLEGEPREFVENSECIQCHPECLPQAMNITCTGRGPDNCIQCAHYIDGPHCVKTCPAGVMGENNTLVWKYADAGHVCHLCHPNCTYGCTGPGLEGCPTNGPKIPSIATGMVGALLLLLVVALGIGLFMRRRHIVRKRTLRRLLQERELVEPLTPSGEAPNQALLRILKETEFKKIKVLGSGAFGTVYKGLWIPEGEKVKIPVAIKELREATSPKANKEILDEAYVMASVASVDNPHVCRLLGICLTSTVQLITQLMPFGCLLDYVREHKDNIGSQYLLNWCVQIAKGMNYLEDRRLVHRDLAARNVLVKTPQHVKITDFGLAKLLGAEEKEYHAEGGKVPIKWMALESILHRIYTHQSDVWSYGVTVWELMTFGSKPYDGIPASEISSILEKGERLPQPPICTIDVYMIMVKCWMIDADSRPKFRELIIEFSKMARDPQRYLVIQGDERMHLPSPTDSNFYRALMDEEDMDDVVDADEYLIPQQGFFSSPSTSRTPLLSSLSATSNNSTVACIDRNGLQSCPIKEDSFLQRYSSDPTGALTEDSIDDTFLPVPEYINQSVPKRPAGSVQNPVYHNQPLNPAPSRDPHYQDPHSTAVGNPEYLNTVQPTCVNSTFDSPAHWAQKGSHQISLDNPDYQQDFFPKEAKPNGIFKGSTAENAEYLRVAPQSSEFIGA
Procedure: as §1, §2, §3, §4, §5, §6

IC50 (A431 (EGFR-WT))	GI50 [1]	GI50 [2]	SMILES
479 nM	29.3 nM	119 nM	C=CC(=O)Nc1cc2c(Nc3cc(-c4ccc(F)cc4F)ccc3F)ncnc2cc1OCCCN1CCOCC1 [Example 11, N-(7-(3-morpholinopropoxy)-4-((2′,4,4′-trifluoro-[1,1′-biphenyl]-3-yl)amino)quinazolin-6-yl)acrylamide]
66 nM	17 nM	27 nM	C=CC(=O)Nc1cc2c(Nc3cccc(-c4ccccc4F)c3)ncnc2cc1OCCCN1CCOCC1 [Example 45, N-(4-((2′-fluoro-[1,1′-biphenyl]-3-yl)amino)-7-(3-morpholinopropoxy)quinazolin-6-yl)acrylamide]
215 nM	11.8 nM	42.4 nM	C=CC(=O)Nc1cc2c(Nc3cccc(-c4ccc(F)cc4F)c3)ncnc2cc1OCCCN1CCOCC1 [Example 1, N-(4-((2′,4′-difluoro-[1,1′-biphenyl]-3-yl)amino)-7-(3-morpholinopropoxy)quinazolin-6-yl)acrylamide]
19.3 nM	1.3 nM	2.5 nM	C=CC(=O)Nc1cc2c(Nc3ccnc(-c4ccccc4F)c3)ncnc2cc1OCCN1CCOCC1 [Example 68, N-(4-((2-(2-fluorophenyl)pyridin-4-yl)amino)-7-(2-morpholinoethoxy)quinazolin-6-yl)acrylamide]
190 nM	29.5 nM	41.4 nM	C=CC(=O)Nc1cc2c(Nc3ccc(F)c(-c4ccccc4)c3)ncnc2cc1OCCCN1CCOCC1 [Example 47, N-(4-((6-fluoro-[1,1′-biphenyl]-3-yl)amino)-7-(3-morpholinopropoxy)quinazolin-6-yl)acrylamide]
2500 nM	12.7 nM	35 nM	C=C(F)C(=O)Nc1cc2c(Nc3ccnc(-c4ccccc4F)c3)ncnc2cc1N1CCC1 [Example 105, N-(7-(azetidin-1-yl)-4-((2-(2-fluorophenyl)pyridin-4-yl)amino)quinazolin-6-yl)-2-fluoroacrylamide]
348 nM	11 nM	23.6 nM	C=CC(=O)Nc1cc2c(Nc3cncc(-c4c(F)cccc4F)c3)ncnc2cc1OCCCN1CCN(C)CC1 [Example 62, N-(4-((5-(2,6-difluorophenyl)pyridin-3-yl)amino)-7-(3-(4-methylpiperazin-1-yl)propoxy)quinazolin-6-yl)acrylamide]
343 nM	38.5 nM	117 nM	C=CC(=O)Nc1cc2c(Nc3cccc(-c4ccc(F)cc4F)c3)ncnc2cc1OCCN1CCOCC1 [Example 3, N-(4-((2′,4′-difluoro-[1,1′-biphenyl]-3-yl)amino)-7-(2-morpholinoethoxy)quinazolin-6-yl)acrylamide]
9.3 nM	1.9 nM	3.1 nM	C=CC(=O)Nc1cc2c(Nc3ccnc(-c4ccccc4F)c3)ncnc2cc1OCCCN1CCN(CC)CC1 [Example 71, N-(7-(3-(4-ethylpiperazin-1-yl)propoxy)-4-((2-(2-fluorophenyl)pyridin-4-yl)amino)quinazolin-6-yl)acrylamide]
377 nM	28.6 nM	59.1 nM	C=CC(=O)Nc1cc2c(Nc3ccc(F)c(-c4ccccn4)c3)ncnc2cc1OCCCN1CCOCC1 [Example 49, N-(4-((4-fluoro-3-(pyridin-2-yl)phenyl)amino)-7-(3-morpholinopropoxy)quinazolin-6-yl)acrylamide]
26 nM	14.5 nM	41.4 nM	C=CC(=O)Nc1cc2c(Nc3ccc(F)c(-c4ccccc4)c3)ncnc2cc1OCCCN1CCN(C)CC1 [Example 48, N-(4-((6-fluoro-[1,1′-biphenyl]-3-yl)amino)-7-(3-(4-methylpiperazin-1-yl)propoxy)quinazolin-6-yl)acrylamide]
597 nM	70.5 nM	177 nM	C=CC(=O)Nc1cc2c(Nc3cccc(-c4ccc(F)cc4F)c3)ncnc2cc1OCCN1CCC(F)(F)C1 [Example 19, N-(4-((2′,4′-difluoro-[1,1′-biphenyl]-3-yl)amino)-7-(2-(3,3-difluoropyrrolidin-1-yl)ethoxy)quinazolin-6-yl)acrylamide]
1820 nM	3.3 nM	8.3 nM	C=C(F)C(=O)Nc1cc2c(Nc3ccnc(-c4ccccc4F)c3)ncnc2cc1N1CCOCC1 [Example 95, 2-fluoro-N-(4-((2-(2-fluorophenyl)pyridin-4-yl)amino)-7-morpholinoquinazolin-6-yl)acrylamide]
840 nM	5.1 nM	13.6 nM	C=CC(=O)Nc1cc2c(Nc3cncc(-c4ccccc4F)c3)ncnc2cc1OCCCN1CCOCC1 [Example 58, N-(4-((5-(2-fluorophenyl)pyridin-3-yl)amino)-7-(3-morpholinopropoxy)quinazolin-6-yl)acrylamide]
487 nM	4.1 nM	10.7 nM	C=C(F)C(=O)Nc1cc2c(Nc3ccnc(-c4ccccc4F)c3)ncnc2cc1OCC [Example 87, 2-fluoro-N-(4-((2-(2-fluorophenyl)pyridin-4-yl)amino)-7-ethoxyquinazolin-6-yl)acrylamide]
270 nM	13.7 nM	30.6 nM	C=CC(=O)Nc1cc2c(Nc3cccc(-c4c(F)cccc4F)c3)ncnc2cc1OCCCN1CCN(C(C)C)CC1 [Example 22, N-(4-((2′,6′-difluoro-[1,1′-biphenyl]-3-yl)amino)-7-(3-(4-isopropylpiperazin-1-yl)propoxy)quinazolin-6-yl)acrylamide]
32.1 nM	4.2 nM	6.8 nM	C=CC(=O)Nc1cc2c(Nc3ccnc(-c4ccc(F)cc4F)c3)ncnc2cc1OCCCN1CCN(C)CC1 [Example 79, N-(4-((2-(2,4-difluorophenyl)pyridin-4-yl)amino)-7-(3-(4-methylpiperazin-1-yl)propoxy)quinazolin-6-yl)acrylamide]
238 nM	25.2 nM	28.4 nM	C=CC(=O)Nc1cc2c(Nc3cccc(-c4ccc(F)cc4F)c3)ncnc2cc1OCCCN1CCN(C)CC1 [Example 7, N-(4-((2′,4′-difluoro-[1,1′-biphenyl]-3-yl)amino)-7-(3-(4-methylpiperazin-1-yl)propoxy)quinazolin-6-yl)acrylamide]
352 nM	33.9 nM	106 nM	C=CC(=O)Nc1cc2c(Nc3cccc(-c4c(F)cc(F)cc4F)c3)ncnc2cc1OCCCN1CCOCC1 [Example 25, N-(7-(3-morpholinopropoxy)-4-((2′,4′,6′-trifluoro-[1,1′-biphenyl]-3-yl)amino)quinazolin-6-yl)acrylamide]
877 nM	14.5 nM	51.1 nM	C=C(F)C(=O)Nc1cc2c(Nc3ccnc(-c4ccccc4F)c3)ncnc2cc1F [Example 93, 2-fluoro-N-(7-fluoro-4-((2-(2-fluorophenyl)pyridin-4-yl)amino)quinazolin-6-yl)acrylamide]
44.1 nM	6.5 nM	16.5 nM	C=C(F)C(=O)Nc1cc2c(Nc3ccnc(-c4ccccc4F)c3)ncnc2cc1O[C@@H]1CCN(C2CCOCC2)C1 [Example 121, (R)-2-fluoro-N-(4-((2-(2-fluorophenyl)pyridin-4-yl)amino)-7-((1-(tetrahydro-2H-pyran-4-yl)pyrrolidin-3-yl)oxy)quinazolin-6-yl)acrylamide]
